# Assay results reported in patent US20120277187A1, “Agent for Preventing Infection” (priority 2006, published 2012).
# Entries after “also recorded” stand apart in the source; their conditions may differ.
# Columns and labels:
# Assay type in all cases: in vivo, mouse (Balb/c)
# [1] = tested on: A/Guizhou virus (type A influenza virus); experiment: Transnasal sphingomyelin with simultaneous type A influenza virus infection in mice (nasal cavity wash virus titer, plaque method with MDCK cell)
# Description: (§1) (Verification of the Effect to Prevent Infection with Type A Influenza Virus and Type B Influenza Virus)
# (§2) Mice (Balb/c, male, 6 weeks of age) were transnasally infected with A/Guinzhou virus as the type A influenza virus or B/Ibaraki virus as the type B influenza virus, and at the same time, a 100 μg/ml solution of the sphingomyelin (SPM) obtained in Example 1 was transnasally administered at a dose of 5 μl/nasal cavity dose (dose: 0.5 μg), and the preventive effect on the infection with an influenza virus was judged by the virus titer in the nasal cavity washes. In this connection, groups transnasally infected with respective influenza viruses alone were prepared. A plaque method which uses MDCK cell was used in the judgment.
# [2] = tested on: influenza virus PR 8 (H1N1); experiment: Oral administration of sphingomyelin, prevention of influenza virus infection in mice (nasal cavity wash virus titer, plaque method with MDCK cell); settings: for Nasal cavity virus titer x (PFU/ml: 10^x): 1×10^3 pfu PR 8 (H1N1), nasal cavity washes 3 days after infection
# Source text: (Verification of the Effect of Oral Administration of Sphingomyelin on the Prevention of Infection with an Influenza Virus)
# A mouse (Balb/c, male, 6 weeks of age) was infected with 1×10^3 pfu in viral quantity of influenza virus PR 8 (H1N1). Before the infection treatment, sphingomyelin was orally administered, and its infection preventive effect was judged by the virus titer in the nasal cavity washes 3 days after the virus infection. In carrying out the oral administration, sphingomyelin was used by dispersing in water. A plaque method which uses MDCK cell was used in the judgment.
# This indicates the effect of sphingomyelin to prevent infection with an influenza virus.
# [3] = tested on: B/Ibaraki virus (type B influenza virus); experiment: Transnasal sphingomyelin with simultaneous type B influenza virus infection in mice (nasal cavity wash virus titer, plaque method with MDCK cell)
# Description: as §1, §2
substance,measurement,setting,value
sphingomyelin [SPM],Nasal cavity virus titer,"[1]; A/Guizhou virus, transnasal 100 μg/ml, 5 μl/nasal cavity (dose 0.5 μg) at the same time as infection",1.99 ± 0.31
same,Infection preventive effect (in words),"[1]; type A influenza virus, transnasal administration",confirmed; also recorded: more considerable effect
same,Nasal cavity virus titer x (PFU/ml: 10^x),[2]; 1 mg oral before infection,2.23 ± 0.16 PFU/ml: 10^x
same,Nasal cavity virus titer x (PFU/ml: 10^x),[2]; 10 mg oral before infection,2.15 ± 0.29 PFU/ml: 10^x
same,Nasal cavity virus titer in administration group (in words),[2]; oral administration group versus control (no administration),lowered with significance
same,Nasal cavity virus titer,"[3]; B/Ibaraki virus, transnasal 100 μg/ml, 5 μl/nasal cavity (dose 0.5 μg) at the same time as infection",2.73 ± 0.06
same,Infection preventive effect (in words),"[3]; type B influenza virus, transnasal administration",confirmed
